Data reported in paper PMC11874007, “Switching Roles—Exploring Concentration-Dependent Agonistic versus Antagonistic Behavior of Integrin Ligands” (Journal of Medicinal Chemistry, 2025).

Tests used:
[1] = tested on: HN cells (αvβ6+); assay: Time-dependent cellular uptake of Cy5.5-labeled ligands, HN cells; assay type: cell-based; details: Cy5.5-labeled ligands, 1 μM
From the text: For intracellular drug delivery, integrin ligands designed as drug-conjugated vehicles have to be easily and selectively internalized by tumor cells (over)expressing the respective targeted integrin subtype. […] It should be noted here that HN, OV-MZ-6, and RKO cells also express low αvβ3 expression levels.
Figure 7 Cellular uptake of Cy5.5-labeled integrin ligands. […] Nuclei were costained with Hoechst 33342 (blue signal) and cell membranes with CellMask Green (green signal). Merge of stains (yellow signal) indicated colocalization of ligands at the cell membrane. Scale bar: 50 μm.
Microchamber cell culture slides were coated with fibronectin (2 μg/mL), followed by cell seeding at a density of 50,000 cells/well. After 24 h of cultivation, cells were treated with integrin ligands L1-Cy5.5 to L5-Cy5.5 (1 μM in 0.01% (w/v) CaCl2 and 0.1% (w/v) BSA in PBS; 250 μL/well) for 3, 30, 60, or 300 min at 37 °C. The cells were washed in PBS/0.01% (w/v) CaCl2 (6 × 800 μL) and the fluorescence signal intensity recorded using the LSM 700 microscope (Zeiss, Jena, Germany). CellMask Green Plasma Membrane Stain was used to stain the cell membrane; nuclei were stained with Hoechst 33342.

[2] = biological target: T1, human αvβ6-integrin (Homo sapiens, UniProt P06756+P18564); details: previously published values; cited from earlier work
T1 construct: purchased R&D 3817-AV-050
T1 sequence (P06756 31-992 limits assumed): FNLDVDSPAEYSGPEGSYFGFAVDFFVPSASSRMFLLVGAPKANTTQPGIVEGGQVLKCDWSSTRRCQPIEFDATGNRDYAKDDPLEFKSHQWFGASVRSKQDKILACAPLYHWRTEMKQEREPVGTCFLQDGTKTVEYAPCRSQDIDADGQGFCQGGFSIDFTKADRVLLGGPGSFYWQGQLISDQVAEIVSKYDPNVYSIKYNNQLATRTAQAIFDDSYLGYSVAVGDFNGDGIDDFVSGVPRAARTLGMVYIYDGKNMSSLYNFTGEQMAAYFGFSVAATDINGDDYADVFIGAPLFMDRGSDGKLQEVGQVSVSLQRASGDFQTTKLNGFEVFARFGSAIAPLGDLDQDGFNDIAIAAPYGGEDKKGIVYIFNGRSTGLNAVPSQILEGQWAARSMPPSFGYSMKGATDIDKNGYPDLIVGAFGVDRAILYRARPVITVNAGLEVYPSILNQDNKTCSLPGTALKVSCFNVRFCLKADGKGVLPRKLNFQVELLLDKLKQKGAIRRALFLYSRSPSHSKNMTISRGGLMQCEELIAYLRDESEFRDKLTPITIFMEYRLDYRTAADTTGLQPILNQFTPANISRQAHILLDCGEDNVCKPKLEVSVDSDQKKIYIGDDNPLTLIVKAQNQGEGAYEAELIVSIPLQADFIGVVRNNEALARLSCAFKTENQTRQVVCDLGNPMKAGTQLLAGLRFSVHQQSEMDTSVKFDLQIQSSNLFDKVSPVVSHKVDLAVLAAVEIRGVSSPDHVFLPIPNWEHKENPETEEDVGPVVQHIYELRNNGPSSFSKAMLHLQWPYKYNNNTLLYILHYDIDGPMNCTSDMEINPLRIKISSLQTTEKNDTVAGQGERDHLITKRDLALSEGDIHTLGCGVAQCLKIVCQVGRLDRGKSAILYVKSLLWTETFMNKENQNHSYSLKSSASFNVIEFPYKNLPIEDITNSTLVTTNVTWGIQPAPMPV
T1 sequence (P18564 22-707 limits assumed): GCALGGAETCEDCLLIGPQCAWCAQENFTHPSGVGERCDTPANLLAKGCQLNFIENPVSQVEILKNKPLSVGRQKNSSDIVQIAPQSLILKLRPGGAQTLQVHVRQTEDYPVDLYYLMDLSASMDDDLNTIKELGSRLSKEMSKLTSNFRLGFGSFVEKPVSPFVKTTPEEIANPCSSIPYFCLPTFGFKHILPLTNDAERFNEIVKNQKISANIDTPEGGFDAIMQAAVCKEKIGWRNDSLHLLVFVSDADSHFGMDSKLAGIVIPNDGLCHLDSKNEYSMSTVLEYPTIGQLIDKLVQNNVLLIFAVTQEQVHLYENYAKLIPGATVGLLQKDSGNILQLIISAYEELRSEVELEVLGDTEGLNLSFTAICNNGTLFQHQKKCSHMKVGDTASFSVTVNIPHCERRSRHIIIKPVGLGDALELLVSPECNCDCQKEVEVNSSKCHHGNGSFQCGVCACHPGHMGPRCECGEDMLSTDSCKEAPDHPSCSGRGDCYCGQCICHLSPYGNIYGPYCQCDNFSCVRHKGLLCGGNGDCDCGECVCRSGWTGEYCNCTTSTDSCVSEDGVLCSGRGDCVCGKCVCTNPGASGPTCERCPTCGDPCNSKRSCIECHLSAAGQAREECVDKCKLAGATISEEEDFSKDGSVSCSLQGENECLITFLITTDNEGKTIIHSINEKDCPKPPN

c(FRGDLAFp(NMe)K) [L3]
Cellular uptake, comparison of αvβ6 ligands [1]: better cellular uptake than L4 | IC50 [2]: 0.28 ± 0.019 nM
